Holding throughout (type): cell-based
Experiment [1] concerns Human umbilical vein endothelial cells (HUVEC). Kind of experiment: Endothelial cell proliferation, 3H-thymidine incorporation. To be noted: 24 h, FIG. 2. The protocol:
Human umbilical vein endothelial cells (HUVEC) underwent serum-starved cultivation for 24 h. The cells were then preincubated with the appropriate compounds for 2 h and subsequently cultivated in the presence of the inhibitors with VEGF (MAE87) or bFGF (MAE106, MAZ51) for a further 24 h. The cells were then incubated with ^3H-thymidine. The amount of radioactivity incorporated into the cellular DNA was measured. All the experiments were carried out in triplicate.
HUVE cells were seeded in 100 μl/well (10^5 cells/ml) in 96-well culture plates and left to rest overnight. The cells were then starved with 50 μl of serum-free medium/well for 24 h. Subsequently, 50 μl of various concentrations of the test substances in serum-free medium (contains 2% DMSO) were added and incubated at 37° C. for 2 h. The medium containing the test compounds was removed and replaced by 50 μl of fresh medium with bFGF (12.5 ng/ml) or VEGF (100 ng/ml). Fresh dilutions of the doubly concentrated test substances in serum-free medium with 2% DMSO were added to the cells in 50 μl/well. The final concentration of DMSO was always 1%. After 24 h, ^3H-thymidine (1 μCi/well) was added, and the cells were incubated for a further 4-6 h. To analyze the incorporated radioactivity, the cells were trypsinized for 30 min and harvested with the aid of a harvester 96 cell (Tomtec) and fixed on a glass fiber membrane filter. The immobilized radioactivity was quantified with the aid of a MicroBeta TriLux liquid scintillation luminescence counter. The result is depicted in FIG. 2.
FIG. 2: Measurement of the (^3H)-thymidine incorporation into human endothelial cells (HUVEC) as a function of the concentration of inhibitors employed (MAE87, MAE106 and MAZ51). The inhibition of cell proliferation by MAE87, MAE106 and MAZ51 is dose-dependent in this case.
For orientation: Dividing cells build labelled thymidine or BrdU into new DNA.

Experiment [2] relates to Human endothelial cells (HDMEC). Kind of experiment: Apoptosis, Cell Death Detection ELISA (nucleosome ELISA). To be noted: 24 h, FIG. 5. The protocol:
(§1) Human endothelial cells (HDMEC) and rat pancreatic tumor cells (1AS) were resuspended (10^5 cells/ml). 50 μl of cell suspension were seeded in 96-well cell culture plates and incubated at 37° C. for 24 h. The cells were then incubated with the stated concentrations of the various inhibitors for a further 24 h. The pro-apoptotic effect of the compounds was determined using the Cell Death Detection ELISA^plus kit (Roche Diagnostics GmbH, Mannheim) in accordance with the manufacturer's statements. The kit contains a photometric enzyme immunoassay for qualitative and quantitative in vitro determination of cytoplasmic histone-associated DNA fragments (mono- and oligo-nucleosomes) released through active cell death (apoptosis). […] The measurements relative to the untreated cells are plotted against the inhibitor concentration.
(§2) FIG. 5: Nucleosome ELISA test (Cell Death Detection ELISA). The extent of dead cells of the respective cell line is depicted (as relative absorption at 405 nm) in relation to the use of the inhibitors MAE87, MAE106 and MAZ51 and MAZ51-2.
Background: ELISA stands for enzyme-linked immunosorbent assay.

Experiment [3] deals with rat pancreatic tumor cells (1AS). The experiment is described as above. To be noted: 1AS cells, 24 h; FIG. 5. The protocol: as §1, §2
The test system of a further experiment is rat carcinoma cell lines. Kind of experiment: Apoptosis in rat tumor cell lines, nucleosome ELISA. To be noted: 2.5 μM or 10 μM, 24 h, FIG. 6. The procedure: Cells of the rat tumor cell line (Nestl et al., 2001, Cancer Research 61: 1569-1577) were cultivated in the presence of 1% DMSO (solvent control), 2.5 μM or 10 μM of the indolinone for 24 h. Apoptosis was quantified with the aid of anti-DNA peroxidase antibody. The amount of dye produced in the chromogenic reaction catalyzed by the peroxidase was measured by photometry at 405 nm and correlated with the amount of apoptosis-associated cytoplasmic mono- and oligonucleosomes. The data are stated in % apoptosis relative to the cells of the solvent control (% relative to control) (FIG. 6).
FIG. 6: Nucleosome ELISA test (Cell Death Detection ELISA). The extent of dead cells of the respective rat tumor cell line is depicted (apoptosis in %) in relation to the use of the inhibitors MAE87, MAE106 and MAZ51.

Entries after “also recorded” stand apart in the source; their conditions may differ.

Regarding `O=C1Nc2ccccc2C1=Cc1ccc(O)cc1O` [MAE87, 3-(2,4-Dihydroxybenzylidene)-1,3-dihydroindol-2-one], in experiment [1] (VEGF stimulated), the “inhibition of cell proliferation (3H-thymidine incorporation)” value (from here on “inhibition of cell proliferation”) is “dose-dependent”. The “induction of apoptosis (relative absorption at 405 nm)” value in experiment [2] and in experiment [3] was “Induced Apoptosis” in each case. Moreover, the “induction of apoptosis (% relative to solvent control)” value with rat carcinoma cell lines is on record as “induce cell death”.
With `COc1ccc(C=C2C(=O)Nc3ccccc32)cc1F` [MAE106, 3-(3-Fluoro-4-methoxybenzylidene)-1,3-dihydroindole-2-one], the “inhibition of cell proliferation” value in experiment [1] (bFGF stimulated) is given as “dose-dependent”. Besides, the “induction of apoptosis (relative absorption at 405 nm)” value in experiment [2] and in experiment [3] was “Induced Apoptosis” throughout. Further, the “induction of apoptosis (% relative to solvent control)” value in the experiment with rat carcinoma cell lines is listed as “induce cell death”.
In the case of `CN(C)c1ccc(C=C2C(=O)Nc3ccccc32)c2ccccc12` [MAZ51, 3-(4-Dimethylaminonaphthalen-1-ylmethylene)-1,3-dihydroindol-2-one], the “inhibition of cell proliferation” value in experiment [1] (bFGF stimulated) is listed as “dose-dependent”. In addition, the “induction of apoptosis (relative absorption at 405 nm)” value in experiment [2] and in experiment [3] was “potent activator of apoptosis” each time. Also, the “induction of apoptosis (% relative to solvent control)” value in the experiment with rat carcinoma cell lines is “most potent apoptosis inducer; also recorded: induce cell death”.

These data come from patent publication US8324267B2, “Kinase inhibitors and the use thereof” (Forschungzentrum Karlsruhe GmbH, priority 2001, dated 2012).
